According to US11319348B2, “Synthetic beta-amyloid peptides capable of forming stable antigenic oligomers” (The Regents of the University of California, priority 2016, dated 2022):
Non-standard residues stand in square brackets, D forms with d. No end group written: not given here. NMeF = CN[C@@H](Cc1ccccc1)C(=O)O; Orn = NCCC[C@H](N)C(=O)O

Key:
[1] = test system: caspase-3; assay: caspase-3 activation assay; assay type: cell-based, human; conditions: for caspase-3 activation / induction of caspase-3 mediated apoptosis: SH-SY5Y cells; for caspase-3 activation: 72 h; for caspase-3 activity level compared to staurosporine: after treatment of SH-SY5Y cells; for induction of caspase-3 mediated apoptosis: trimers at 6 μM, within 72 h
Method: One of the ways in which A oligomers elicit toxicity is through induction of caspase-3 mediated apoptosis. Trimers 3 and 4 were evaluated for their ability to induce caspase-3 mediated apoptosis using a rhodamine-based caspase-3 activity assay.
The toxicities of peptides 1 and […], and trimers 3 and 4 toward SH-SY5Y cells were assessed by LDH release and caspase-3 activation assays. Cells were incubated in the presence or absence of equivalent concentrations of peptides 1 or 3, or trimers 3 and 4 for 72 h in 96-well plates. The LDH release assay was performed using the Pierce LDH Cytotoxicity Assay Kit from Thermo Scientific. The caspase-3 assay was performed using the Roche APO-One Homogeneous Caspase-3/7 Assay. Experiments were performed in replicates of five and an additional 10 wells were used for controls. Cells were cultured in the inner 60 wells (rows B-G, columns 2-11) of the 96-well plate. DMEM:F12 media (100 μL) was added to the outer wells (rows A and H, columns 1 and 12), in order to ensure the greatest reproducibility of data generated in the inner wells.
SH-SY5Y cells were plated in a 96-well plate at 30,000 cells per well. Cells were incubated in 100 μL of a 1:1 mixture of DMEM:F12 media supplemented with 10% fetal bovine serum, 100 U/mL penicillin, and 100 μg/mL streptomycin at 37° C. in a 5% CO2 atmosphere and allowed to adhere to the bottom of the plate for 24 hours.
After 24 hours, the culture media was removed and replaced with 90 μL of serum-free DMEM:F12 media. A 10 μL aliquot of the working solutions of peptides 1 or 2, or trimers 3 and 4 was added to each well, for a well-concentration of 18 μM and 9 μM for peptides 1 and 2, 6 μM and 3 μM for trimer 3 or 6 μM, 3 μM, 1.5 μM, and 0.75 μM for trimer 4. Experiments were run in replicates of five. Five wells were used as controls and received a 10 μL aliquot of deionized water (vehicle). Another five wells were left untreated, to be subsequently used as controls with lysis buffer for the LDH release assay, or staurosporine for the caspase-3 activation assay. Cells were incubated at 37° C. in a 5% CO2 atmosphere for 72 hours.
After 67 hours, 10 μL of 10× staurosporine was added to the control wells, and the cells were incubated for an additional 5 h. Next, the compound-containing media was removed and replaced with 25 μL of fresh serum-free DMEM/F12 media. A 25-μL aliquot of caspase-3 substrate, prepared according to manufacturer's protocol, was then added to each well. The plate was sealed with a clear adhesive plate sealer and fluorescence was monitored over 18 h while shaking at 250 rpm using a Gemini XPS fluorescence plate reader (excitation at 499 nm, emission at 521 nm). Data from the 18 h time point were processed by subtracting the relative fluorescence units (RFU) of the vehicle control wells from the RFU of the peptides 1 and 2 or trimers 3 and 4-treated wells.

[2] = Tricine SDS-PAGE with silver staining; assay type: physicochemical
Text: Trimer 3 migrates as a single band at a molecular weight consistent with a hexamer. Trimer 4, in contrast, migrates as two distinct bands: a band consistent with the molecular weight of a dodecamer, and a band consistent with the molecular weight of a trimer.
Peptide 8 assembles to form a hexamer in SDS-PAGE. […] To further confirm the oligomerization state of […], it was compared to covalent trimers 3 and 4 (FIGS. 19A and 19B), which was previously determined to migrate respectively as 10.6 kDa hexamers and 21.2 kDa dodecamers in equilibrium with the 5.3 kDa trimers. Peptide 8 migrates at the same molecular weight as the hexamer band of trimer 3, providing further evidence that peptide 8 assembles to form a hexamer in SDS-PAGE.
The oligomerization of peptides 1 and 2 and trimers 3 and 4 was studied by Tricine SDS-PAGE.
Each peptide or trimer was dissolved in deionized water to a concentration of 10 mg/mL. An aliquot of the 10 mg/mL solutions was diluted with deionized water to create 2 mg/mL solutions of peptides 1 and 2, or 0.12 mg/mL solutions of trimers 3 and 4. The […] of peptides 1 and 2, as well as the 0.12 mg/mL solutions of trimers 3 and 4 were further diluted with 2×SDS-PAGE loading buffer (100 mM Tris buffer at pH 6.8, 20% (v/v) glycerol, and 4% SDS) to create 1 mg/mL working solutions of peptides 1 and 2, and 0.06 mg/mL working solutions of trimers 3 and 4. A 5 μL aliquot of each working solution was run on a 16% polyacrylamide gel with a 4% stacking polyacrylamide gel. The gels were run at a constant 60 volts at 4° C.
Staining with silver nitrate was used to visualize peptides 1 and 2 and trimers 3 and 4 in the SDS-PAGE gel. Briefly, the gel was removed from the casting glass and rocked in fixing solution (50% (v/v) methanol and 5% (v/v) acetic acid in deionized water) for 20 min. Next, the fixing solution was discarded and the gel was rocked in 50% (v/v) methanol for 10 min. Next, the 50% methanol was discarded and the gel was rocked in deionized water for 10 min. Next, the water was discarded and the gel was rocked in 0.02% (w/v) sodium thiosulfate in deionized water for 1 min. The sodium thiosulfate was discarded and the gel was rinsed with deionized water (2×). After the last rinse, the gel was submerged in chilled 0.1% (w/v) silver nitrate in deionized water and rocked at 4° C. for 20 min. Next, the silver nitrate solution was discarded and the gel was rinsed with deionized water (2×). To develop the gel, the gel was incubated in developing solution (2% w/v sodium carbonate, 0.04% formaldehyde until the desired intensity of staining was reached (˜1-3 min). When the desired intensity of staining was reached, the development was topped by discarding the developing solution and submerging the gel in 5% acetic acid.

caspase-3 activation [1]	caspase-3 activity level compared to staurosporine [1]	Substance	induction of caspase-3 mediated apoptosis [1]	oligomer size by SDS-PAGE [2]	oligomer state by migration in SDS-PAGE [2]
yes	comparable	trimer 3: symmetric tris-disulfide crosslinked trimer generated from peptide 3 (chain 1 [Orn]CVFFCED; chain 2 [Orn]AIIGL[Orn]V; not fully specified (some residues); also: symmetric tris-disulfide crosslinked trimer, macrocyclic by macrolactamization, linkage of strands not given here)	induced apoptosis	6	hexamer
yes	comparable	trimer 4: symmetric tris-disulfide crosslinked trimer generated from peptide 4 (chain 1 [Orn]CVF[NMeF]CED; chain 2 [Orn]AIIGL[Orn]V; also: symmetric tris-disulfide crosslinked trimer, macrocyclic by macrolactamization, linkage of strands not given here)	induced apoptosis	–	–
no	–	peptide 2: macrocyclic β-sheet peptide: Aβ17-23 and Aβ30-36 strands linked by two δOrn turns, Orn35, N-methyl on F20 (Seq. ID 20-21)	little or no effect	1-2	monomer or dimer

Substance	caspase-3 activation [1]	caspase-3 activity level compared to staurosporine [1]	induction of caspase-3 mediated apoptosis [1]	oligomer size by SDS-PAGE [2]	oligomer state by migration in SDS-PAGE [2]
peptide 1: macrocyclic β-sheet peptide: Aβ17-23 and Aβ30-36 strands linked by two δOrn turns, Orn35, N-methyl on G33 (Seq. ID 18-19)	no	–	little or no effect	1-2	–
